# Assay results reported in the supplement of paper PMC6045584.
# ± gives the standard deviation of the averaged measurements.
# Key:
# [1] = compound: CC(=O)c1c(C)c2cnc(Nc3ccc(N4CCNCC4)cn3)nc2n(C2CCCC2)c1=O; assay: surviving fraction relative to DMSO-only wells; higher = less growth inhibition; settings: exposure time: 5 days
# In short: (§1)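 Luminescence normalised to the median of DMSO-only wells defines surviving fraction, with viability read by CellTiter-Glo. Signal was recorded after 10 minutes at room temperature, once log-phase tumour cell lines seeded at 250–500 cells per well in 384-well plates had spent 24 hours settling and then five days under continuous exposure to inhibitors at 0.5, 1, 5, 10, 50, 100, 500 and 1000 nM.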
# GEFITINIB = compound: COc1cc2ncnc(Nc3ccc(F)c(Cl)c3)c2cc1OCCCN1CCOCC1 [GEFITINIB]; assay: as above; settings: exposure time: 5 days
# In short: as §1
Test System,surviving fraction ([1]; 0.5 nM),surviving fraction ([1]; 1 nM),surviving fraction ([1]; 5 nM),surviving fraction ([1]; 10 nM),surviving fraction ([1]; 50 nM),surviving fraction ([1]; 100 nM),surviving fraction ([1]; 500 nM),surviving fraction ([1]; 1000 nM),surviving fraction (GEFITINIB; 0.5 nM),surviving fraction (GEFITINIB; 1 nM),surviving fraction (GEFITINIB; 5 nM),surviving fraction (GEFITINIB; 10 nM),surviving fraction (GEFITINIB; 50 nM),surviving fraction (GEFITINIB; 100 nM),surviving fraction (GEFITINIB; 500 nM),surviving fraction (GEFITINIB; 1000 nM)
DU4475 BREAST,1.11 ± 0.15,1.23 ± 0.076,1.08 ± 0.17,1.08 ± 0.31,1.03 ± 0.3,0.997 ± 0.36,1.02 ± 0.32,0.951 ± 0.32,0.921 ± 0.068,0.955 ± 0.045,0.82 ± 0.095,0.914 ± 0.01,0.879 ± 0.14,0.906 ± 0.16,1.01 ± 0.1,0.889 ± 0.069
G292 BONE,1 ± 0.068,0.976 ± 0.033,1 ± 0.024,1.02 ± 0.045,0.951 ± 0.062,0.929 ± 0.058,0.678 ± 0.025,0.678 ± 0.036,0.976 ± 0.023,1.03 ± 0.045,1.04 ± 0.035,1.059 ± 0.0083,1.03 ± 0.052,1.04 ± 0.04,0.954 ± 0.038,0.9402 ± 0.0094
22RV1 PROSTATE,1.05 ± 0.089,1.06 ± 0.032,1.04 ± 0.067,1.048 ± 0.0085,1.09 ± 0.053,1.11 ± 0.08,1.11 ± 0.071,1.03 ± 0.027,1 ± 0.023,0.984 ± 0.18,0.979 ± 0.085,1 ± 0.058,0.987 ± 0.18,1.03 ± 0.15,1.04 ± 0.17,1.03 ± 0.12
NY BONE,1.02 ± 0.024,1.03 ± 0.065,1.05 ± 0.057,1.04 ± 0.018,1.12 ± 0.023,1.06 ± 0.043,1.04 ± 0.049,1.02 ± 0.068,0.999 ± 0.032,1 ± 0.035,1.09 ± 0.036,1.06 ± 0.031,1.07 ± 0.026,1.14 ± 0.016,0.998 ± 0.019,0.969 ± 0.032
